Consider one molecule from US5495046A, “Alkoxyphenylalkylamine derivatives” (Taisho Pharmaceutical Co., Ltd., priority 1991, dated 1996).

Assay [1] deals with D2 receptor. The settings on record: value obtained from spiperone binding; European Journal of Pharmacology, 155, p. 345 (1988); cited from earlier work.
Assay [2] deals with (+) SKF 10047-induced abnormal behaviors. Put plainly: Antagonism against (+) SKF 10047-induced abnormal behaviors. The assay is classed as in vivo, ICR male mice. The settings on record: Mus musculus; oral, 35 minutes before (+) SKF10047 30 mg/kg i.p.; stereotypy scores for 40 minutes at intervals of 5 minutes; read-out: ED25. On the procedure: Examination on Antagonism Against (+) SKF 10047-induced Abnormal Behaviors
Preparations were formulated by dissolving 10 mg of each test drug in 1 ml of dimethylsulfoxide, diluting with physiological saline to a concentration of […], and further diluting the obtained solution to 0.01 and 0.001 mg/kg (administration dose: 0.1 ml per 10 g body weight of mouse).
The invention compound A, the comparative drug AA and Rimcazole were each orally administered in doses of 0.03, 0.1, 0.3, 1.0, 3.0 and 10.0 mg/kg. Preparations were formulated by suspending in a 5% solution of acacia.
(+) SKF10047 [(+)-N-allylnormetazocine hydrochloride; manufactured by Sigma] was intraperitoneally administered in a dose of 30 mg/kg. The preparation was formulated by dissolving in physiological saline.
As test animals, ICR male mice (Nippon Charles River) aged 4 to 5 weeks were used. Each group had 10 animals.
Each animal was introduced into a transparent acrylic resin cage (24 cm in length×17.5 cm in width×12 cm in height) and allowed to fully adapt to the environment. 35 minutes after the administration of a preparation of a test drug, (+) SKF10047 was administered. […]] were evaluated for 40 minutes at intervals of 5 minutes and the ED25 (mg/kg) was determined.

The subject of assay [3] is sigma receptor. The settings on record: cited from earlier work.

Consider `C[C@@H]1CN(CCCn2c3ccccc3c3ccccc32)C[C@H](C)N1` [Rimcazole], for which the IC50 is 86 µM in assay [1] and 1.64 µM in assay [3] (data of European Journal of Pharmacology, 155, p. 345 (1988)). In addition, the ED25 in assay [2] amounted to 37 mg/kg. Besides, the “affinity and specificity for sigma receptor (in words)” value in assay [3] (background art statement) was “restricted”.
